One compound from patent US7276248B2, “Conjugate having a cleavable linkage for use in a liposome” (ALZA Corporation, priority 1999, dated 2007) can be followed below.

Data set [1] is described as follows: In vivo pharmacokinetics in rats after single bolus intravenous injection. The following applies: time points greater than about 5 minutes.
Description: The in vivo pharmacokinetics of the liposomes containing cholesterol and the cholesterol-free liposome formulation was determined in rats.
Eight rats were randomized into treatment groups as follows:
A single intravenous injection of the test formulation was administered as a bolus dose. Blood samples were taken from each animal at the following times after injection: 30 seconds, 15 minutes, 30 minutes, 1 hour, 2 hours, 4 hours, 8 hours, 24 hours, 48 hours, 72 hours and 96 hours. […] A 200 mM iodoacetamine solution was prepared by placing 199.3 mg of iodoacetamide in 5.1 mL of 7.5% EDTA. 15 μL of the 200 mM iodoacetamide solution was placed in each 1 μL of blood sample.
The final volume was adjusted to 1 mL with methanol. […] The samples were spun down at 3,000 rpm for 10 minutes at room temperature. 300 μL of supernatant was transferred to HPLC vials containing 300 μL insert for injection.
100 μL of plasma sample was denatured with 900 μL of methanol followed by centrifugation for 10 minutes at 3,000 rpm. […]
Peak area and retention times were determined by the PE-Nelson Turbochrom (Version 4.1) system. […] The linearity of the method was evaluated suing standard responses from six concentration levels. […] The precision and accuracy of the method were evaluated from the back-calculated concentrations of the standards as well as from the quality control samples.
Data set [2] deals with M109 cells, a mouse lung carcinoma line. As to the kind of experiment: In vitro cytotoxicity / growth rate of M109 cells, methylene blue staining, 72 hour continuous exposure. In kind it is cell-based. The note with it: read-out: IC50 Values for M109 tumor cells after 72 hour culture with continuous exposure to formulation.
Description: IC50 values were taken as the drug concentration which caused a 50% inhibition of the control growth rate (IC50), as described in Example 6.
Upon completion of the assay, the cells were fixed and evaluated using the methylene blue staining assay.
In the assay, 1500 M109 mouse carcinoma cells from exponentially growing cultures in 200 μl aliquots (RPMI-1640 medium+10% fetal bovine serum) were plated onto 96 well flat-bottom microtiter plates. […] For each 10-fold increase in drug concentration, four drug concentration points were tested. Each test was performed in triplicate wells and in two parallel plates. The cells were treated continuously for 72 hours.
After the 72 hour treatment period, the cultures were fixed by the addition of 50 μl 2.5% glutaraldehyde to each well for 10 minutes. […] The dye was extracted with 200 μl 0.1 N HCl for 60 minutes at 37° C. and the optical density was determined using a microplate spectrophotometer.
The cell number determined by counting cells with a hemocytometer correlated well with the spectrophotometric absorbance. The initial cell plating density was chosen to ensure a linear relationship between cell number and absorbance at the end of the study. In each study, six wells were fixed before drug was added to determine the initial average absorbance. […]
The growth rate was calculated as GR=(ln 2/DT). […]

Read-outs that look alike come from different tables or passages of the source.

What is called IC50 is the concentration needed to halve the response being measured. With `CO[C@@]12[C@H](COC(N)=O)C3=C(C(=O)C(C)=C(N)C3=O)N1C[C@@H]1N[C@@H]12` [free MMC, mitomycin C], in data set [1], the “dose remaining in the blood” value is given as “Virtually none”. The IC50 in data set [2] (Cysteine Concentration 0) came to 285 ± 92 nM; in data set [2] (Cysteine Concentration 1000 μM), 300 ± 71 nM.
